We go through 13 compounds from US11584775B2, “C4-modified oleanolic acid derivatives for inhibition of IL-17 and other uses” (REATA PHARMACEUTICALS, INC., priority 2015, dated 2023).

In one assay the test system is hIL17. The assay can be described thus: IL-17 release from differentiated primary human T-cells (IL-17A HTRF assay). The assay is classed as cell-based. The following applies: inhibition of IL-17A levels; primary human CD4+ T cells differentiated into Th17 cells, 46-hour incubation. The gist of the method: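 Cryopreserved primary human CD4+ T cells were activated with anti-CD3/CD28 beads and driven to Th17 with TGF-β, IL-6, IL-23 and IL-1β in the presence of compound (2-500 nM or 4-1000 nM) for 46 h at 37° C. Supernatant IL-17A was quantified by HTRF against a standard curve and normalized to DMSO. IC50s came from variable-slope fits, with viability read by CyQuant.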

In another assay the target is T1, human RORγ (Homo sapiens, UniProt P51449).
T1 sequence (P51449 269-508 limits assumed): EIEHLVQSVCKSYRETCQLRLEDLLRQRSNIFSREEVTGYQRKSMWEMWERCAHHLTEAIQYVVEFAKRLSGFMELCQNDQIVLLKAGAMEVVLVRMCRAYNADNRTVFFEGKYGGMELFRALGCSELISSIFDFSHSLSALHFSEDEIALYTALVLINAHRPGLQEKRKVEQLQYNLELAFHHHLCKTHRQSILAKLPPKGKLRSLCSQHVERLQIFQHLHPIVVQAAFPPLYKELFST
In words: RORγ assay (GAL4-RORγ hybrid luciferase reporter, inverse-agonist activity). The assay is classed as cell-based. The following applies: GAL4-RORγ hybrid reporter cells, 23 hours. The gist of the method:
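Human cell line expressing GAL4-DBD/RORγ hybrid with UAS-driven luciferase, treated in triplicate with compound (0.4–200 nM or 2–1000 nM) for 23 h at 37 °C. Luminescence normalized to DMSO; viability measured in parallel by multiplex assay. IC50 for RORγ and viability by variable-slope nonlinear regression.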

A further assay relates to NRF2. The assay can be described thus: AREc32 luciferase reporter assay. The assay is classed as cell-based, human. The following applies: EC2×: concentration required to increase GST ARE Luciferase reporter activity by 2-fold; AREc32 cells, 19 hours. The gist of the method:
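AREc32 cells (MCF-7 stably carrying eight rat GSTA2 ARE copies driving firefly luciferase) treated 19 h with compound (0.4–200 nM or 2–1000 nM), triplicate. Luminescence normalized to DMSO as fold-induction; variable-slope fit capped at 50-fold; EC2× = concentration giving 2-fold induction.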

The test system of assay [1] is IFNγ-induced Nitric Oxide production. The assay can be described thus: Nitric oxide production assay in RAW 264.7 mouse macrophages. The assay is classed as cell-based. The following applies: RAW264.7, suppression of IFNγ-induced NO production normalized to cell viability (WST-1), RAW 264.7, 24 hours IFNγ. The gist of the method: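 Cells pre-treated 2 h with compound (0.4-200 nM or 2-1000 nM) in RPMI 1640 + 0.5% FBS, then stimulated with recombinant mouse IFNγ for 24 h at 37 °C. Nitrite measured by Griess reagent, viability by WST-1; IC50 from NO suppression normalized to viability and to DMSO/IFNγ controls.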

For the compound `CNC(=O)[C@]1(C)C(=O)C(C#N)=C[C@]2(C)C3=CC(=O)[C@@H]4[C@@H]5CC(C)(C)CC[C@]5(C(=O)OC)CC[C@@]4(C)[C@]3(C)CC[C@@H]12` [Compound T13, methyl (4aS,6aR,6bS,8aR,9S,12aS,14aR,14bS)-11-cyano-2,2,6a,6b,9,12a-hexamethyl-9-(methylcarbamoyl)-10,14-dioxo-1,3,4,5,6,6a,6b,7,8,8a,9,10,12a,14,14a,14b-hexadecahydropicene-4a(2H)-carboxylate], the figures for the IC50 (in the assay on hIL17; on human RORγ; in assay [1]) were 49 nM, 161 nM and 295 nM, respectively. Moreover, in the assay on NRF2, the “EC2x: concentration giving 2-fold induction of ARE luciferase reporter” value is reported as 567 nM.
With `COC(=O)[C@]12CCC(C)(C)C[C@H]1[C@H]1C(=O)C=C3[C@@]4(C)C=C(C#N)C(=O)[C@@](C)(C(=O)N(C)C)[C@@H]4CC[C@@]3(C)[C@]1(C)CC2` [Compound T14], the values for the IC50 (in the assay with hIL17; at human RORγ; in assay [1]) were 46 nM, 139 nM and 164 nM, respectively. For the same compound, in the assay on NRF2, the “EC2x: concentration giving 2-fold induction of ARE luciferase reporter” value is given as greater than 1000 nM.
The like results for `COC(=O)[C@]12CCC(C)(C)C[C@H]1[C@H]1C(=O)C=C3[C@@]4(C)C=C(C#N)C(=O)[C@@](C)(C(N)=O)[C@@H]4CC[C@@]3(C)[C@]1(C)CC2` [Compound T15, methyl (4aS,6aR,6bS,8aR,9S,12aS,14aR,14bS)-9-carbamoyl-11-cyano-2,2,6a,6b,9,12a-hexamethyl-10,14-dioxo-1,3,4,5,6,6a,6b,7,8,8a,9,10,12a,14,14a,14b-hexadecahydropicene-4a(2H)-carboxylate] were, in that order, 65 nM, 206 nM, 714 nM and 612 nM.
Regarding `COC(=O)[C@]12CCC(C)(C)C[C@H]1[C@H]1C(=O)C=C3[C@@]4(C)C=C(C#N)C(=O)[C@@](C)(c5nnc(C)o5)[C@@H]4CC[C@@]3(C)[C@]1(C)CC2` [Compound T16, methyl (4aS,6aR,6bS,8aR,9R,12aS,14aR,14bS)-11-cyano-2,2,6a,6b,9,12a-hexamethyl-9-(5-methyl-1,3,4-oxadiazol-2-yl)-10,14-dioxo-1,3,4,5,6,6a,6b,7,8,8a,9,10,12a,14,14a,14b-hexadecahydropicene-4a(2H)-carboxylate], the IC50 was determined as 92 nM in the assay with hIL17, 406 nM at human RORγ and 615 nM in assay [1]. For the same compound, the “EC2x: concentration giving 2-fold induction of ARE luciferase reporter” value with NRF2 is listed as greater than 1000 nM.
On to `COCC[C@]1(C)C(=O)C(C#N)=C[C@]2(C)C3=CC(=O)[C@@H]4[C@@H]5CC(C)(C)CC[C@]5(C(=O)OC)CC[C@@]4(C)[C@]3(C)CC[C@H]21` [Compound T17, methyl (4aS,6aR,6bS,8aR,9S,12aS,14aR,14bS)-11-cyano-9-(2-methoxyethyl)-2,2,6a,6b,9,12a-hexamethyl-10,14-dioxo-1,3,4,5,6,6a,6b,7,8,8a,9,10,12a,14,14a,14b-hexadecahydropicene-4a(2H)-carboxylate], for which the IC50 in the assay with hIL17 stood at 30 nM; at human RORγ it was 250 nM; in assay [1] it was 19.5 nM. Moreover, in the assay with NRF2, the “EC2x: concentration giving 2-fold induction of ARE luciferase reporter” value stood at 64 nM.
In the case of `COC(=O)[C@]12CCC(C)(C)C[C@H]1[C@H]1C(=O)C=C3[C@@]4(C)C=C(C#N)C(=O)[C@@](C)(CCO[Si](C)(C)C(C)(C)C)[C@@H]4CC[C@@]3(C)[C@]1(C)CC2` [Compound T18, methyl (4aS,6aR,6bS,8aR,9S,12aS,14aR,14bS)-9-(2-((tert-butyldimethylsilyl)oxy)ethyl)-11-cyano-2,2,6a,6b,9,12a-hexamethyl-10,14-dioxo-1,3,4,5,6,6a,6b,7,8,8a,9,10,12a,14,14a, 14b-hexadecahydropicene-4a(2H)-carboxylate], the concentration for half-maximal inhibition (IC50) in the assay on hIL17 was 24 nM; on human RORγ it was 583 nM; in assay [1], 78.5 nM. Further, the “EC2x: concentration giving 2-fold induction of ARE luciferase reporter” value with NRF2 is on record as 585 nM.
Taken in the same sequence, the figures for `COC(=O)[C@]12CCC(C)(C)C[C@H]1[C@H]1C(=O)C=C3[C@@]4(C)C=C(C#N)C(=O)[C@@](C)(CCO)[C@@H]4CC[C@@]3(C)[C@]1(C)CC2` [Compound T19] were 15 nM, 233 nM, 17.4 nM and 76 nM.
Consider `COC[C@]1(C)C(=O)C(C#N)=C[C@]2(C)C3=CC(=O)[C@@H]4[C@@H]5CC(C)(C)CC[C@]5(C(=O)OC)CC[C@@]4(C)[C@]3(C)CC[C@H]21` [Compound T20], for which the results for the 50% inhibitory concentration (IC50) (in the assay on hIL17; at human RORγ; in assay [1]) were 21 nM, 223 nM and 15.6 nM, respectively. Also, the “EC2x: concentration giving 2-fold induction of ARE luciferase reporter” value with NRF2 is reported as 175 nM.
Take `COC(=O)C[C@]1(C)C(=O)C(C#N)=C[C@]2(C)C3=CC(=O)[C@@H]4[C@@H]5CC(C)(C)CC[C@]5(C(=O)OC)CC[C@@]4(C)[C@]3(C)CC[C@H]21` [Compound T21, methyl (4aS,6aR,6bS,8aR,9S,12aS,14aR,14bS)-11-cyano-9-(2-methoxy-2-oxoethyl)-2,2,6a,6b,9,12a-hexamethyl-10,14-dioxo-1,3,4,5,6,6a,6b,7,8,8a,9,10,12a,14,14a,14b-hexadecahydropicene-4a(2H)-carboxylate]: the IC50 was 33 nM with hIL17, 203 nM on human RORγ and 105 nM in assay [1]. In the assay with NRF2, the “EC2x: concentration giving 2-fold induction of ARE luciferase reporter” value is on record as 269 nM.
In the case of `CC1(C)CC[C@]2(C(=O)NCC(F)(F)F)CC[C@]3(C)[C@H](C(=O)C=C4[C@@]5(C)C=C(C#N)C(=O)[C@@](C)(CO)[C@@H]5CC[C@]43C)[C@@H]2C1` [Compound T22, (4aS,6aR,6bS,8aR,9R,12aS,14aR,14bS)-11-cyano-9-(hydroxymethyl)-2,2,6a,6b,9,12a-hexamethyl-10,14-dioxo-N-(2,2,2-trifluoroethyl)-1,3,4,5,6,6a,6b,7,8,8a,9,10,12a,14,14a,14b-hexadecahydropicene-4a(2H)-carboxamide], the IC50 with hIL17 came to 50 nM; at human RORγ it was 256 nM; in assay [1], 13.5 nM. Besides, the “EC2x: concentration giving 2-fold induction of ARE luciferase reporter” value in the assay with NRF2 amounted to 103 nM.
On to `CC(=O)OC[C@]1(C)C(=O)C(C#N)=C[C@]2(C)C3=CC(=O)[C@@H]4[C@@H]5CC(C)(C)CC[C@]5(C(=O)NCC(F)(F)F)CC[C@@]4(C)[C@]3(C)CC[C@H]21` [Compound T23, ((4R,4aR,6aS,6bR,8aS,12aS,12bR,14bS)-2-cyano-4,6a,6b, 11,11,14b-hexamethyl-3,13-dioxo-8a-((2,2,2-trifluoroethyl)carbamoyl)-3,4,4a,5,6,6a,6b,7,8,8a,9,10,11,12,12a,12b,13,14b-octadecahydropicen-4-yl)methyl acetate], for which the IC50 amounted to 68 nM with hIL17, 145 nM at human RORγ and 150 nM in assay [1]. Besides, in the assay on NRF2, the “EC2x: concentration giving 2-fold induction of ARE luciferase reporter” value is listed as 484 nM.
For the compound `CC1(C)CC[C@]2(C(=O)NCC(F)(F)F)CC[C@]3(C)[C@H](C(=O)C=C4[C@@]5(C)C=C(C#N)C(=O)[C@@](C)(O)[C@@H]5CC[C@]43C)[C@@H]2C1` [Compound T24, (4aS,6aR,6bS,8aR,9S,12aS,14aR,14bS)-11-cyano-9-hydroxy-2,2,6a,6b,9,12a-hexamethyl-10,14-dioxo-N-(2,2,2-trifluoroethyl)-1,3,4,5,6,6a,6b,7,8,8a,9,10,12a,14,14a,14b-hexadecahydropicene-4a(2H)-carboxamide], the results for the IC50 (in the assay with hIL17; at human RORγ; in assay [1]) were 37 nM, 197 nM and 184 nM, respectively. In the assay on NRF2, the “EC2x: concentration giving 2-fold induction of ARE luciferase reporter” value is 406 nM.
The like results for `CCNC(=O)[C@]12CCC(C)(C)C[C@H]1[C@H]1C(=O)C=C3[C@@]4(C)C=C(C#N)C(=O)[C@@](C)(O)[C@@H]4CC[C@@]3(C)[C@]1(C)CC2` [Compound T26, (4aS,6aR,6bS,8aR,9S,12aS,14aR,14bS)-11-cyano-N-ethyl-9-hydroxy-2,2,6a,6b,9,12a-hexamethyl-10,14-dioxo-1,3,4,5,6,6a,6b,7,8,8a,9,10,12a,14,14a,14b-hexadecahydropicene-4a(2H)-carboxamide] were, in that order, 132 nM, 292 nM, 370 nM and 463 nM.
